Target: P. falciparum apicoplast DNA polymerase (Pf-apPOL) (Plasmodium falciparum, UniProt Q8ILY1)
Experiment: Fluorescence-based high-throughput DNA polymerase assay (molecular beacon), primary screen and dose-response
Format: biochemical
Details: for DNA Pol: unit not given, 90 min, 10 µM
Method: The HT assay employs a molecular beacon, a stem-loop DNA template with a Cy3 dye and the Black Hole Quencher on the 3′ and 5′ ends of the DNA, respectively. Pf-apPOL concentration is based on a calculated absorptivity of ε280 = 56750 M^−1 cm^−1. Reactions were carried out at 25 °C, using Corning 3575 […] (well-volume, 20 µL). Assays testing for compound inhibition composed of reaction buffer (pH 7.9 in 50 mM potassium acetate, 20 mM Tris-acetate and 10 mM magnesium acetate), Pf-apPOL (20 nM), DNA substrate (20 nM), dNTPs (6 µM), and compound (10 µM in DMSO). The DNA and nucleotide substrates (dNTPs) were at concentrations of 20 nM and 6 µM, respectively, in the assay. Pf-apPOL was incubated in the reaction buffer with dNTPs and the compound of interest (10 µM, in the assay) at 25 °C for 10 min. The DNA substrate was then added and the reaction was allowed to proceed for 90 min at 25 °C.
Each assay plate contained 16 negative controls (no Pf-apPOL, DMSO present) and 16 positive controls (Pf-apPOL present, no DMSO). The fluorescence of each well was determined using a BioTek Synergy Neo fluorescence plate reader using excitation and emission wavelengths of 555 and 570 nm, respectively.
In the above, Min is the average of fluorescence emission of the negative controls (substrate only), Max the average fluorescence emission from the positive controls (enzyme + substrate), and Test the emission from the assays in the presence of compounds (enzyme + compound + substrates). […] […] The IC50 of each compound was determined using Equation (2): (2) IC50= Vmax/(1+ (I/IC50)^n)
In the above, n measures cooperativity, with n > 1 indicating synergistic binding of more than a single molecule of the compound.
To identify apPOL inhibitors we utilised our previously developed high-throughput DNA polymerase assay. The HT assay is based on a molecular beacon DNA template that forms a stem-loop with a Cy3 dye and the Black Hole Quencher on the 3′ and 5′ ends of the DNA, respectively. DNA polymerase activity extends an annealed primer through the stem region, displacing the fluorophore from the quencher, thereby increasing its fluorescence (Figure 1(A)). The assay accurately recapitulates the kinetic behaviour of apPOL, as measured through more conventional low-throughput gel-based assays. The Z′ factor for the assay described here was 0.9 across all plates (data not shown).
Figure 1. High-throughput screening. (A) The fluorescent-based DNA polymerase assay used to screen the compound libraries. The DNA template strand is a hairpin loop with a primer annealed to the loop. The 3’ end of the primer is 11 bases away from the 6 bp duplex. Strand displacement activity of the DNA polymerase separates the Cy3 dye from the Black hole quencher leading to an increase in fluorescent signal. (B) The high-throughput assay workflow. The DNA polymerase is incubated with […] compound for 10 min prior to addition of the hairpin substrate. The reaction is quenched at 3 different time points and the fluorescent signal is measured and % inhibition is determined using the provided equation.

[1] = DRC-2, 40', concentration 20 (unit not given)
[2] = DRC-2, 90', concentration 20 (unit not given)
[3] = DRC-2, 180', concentration 20 (unit not given)

Chain of P. falciparum apicoplast DNA polymerase (Pf-apPOL) (Q8ILY1 entry or part of it): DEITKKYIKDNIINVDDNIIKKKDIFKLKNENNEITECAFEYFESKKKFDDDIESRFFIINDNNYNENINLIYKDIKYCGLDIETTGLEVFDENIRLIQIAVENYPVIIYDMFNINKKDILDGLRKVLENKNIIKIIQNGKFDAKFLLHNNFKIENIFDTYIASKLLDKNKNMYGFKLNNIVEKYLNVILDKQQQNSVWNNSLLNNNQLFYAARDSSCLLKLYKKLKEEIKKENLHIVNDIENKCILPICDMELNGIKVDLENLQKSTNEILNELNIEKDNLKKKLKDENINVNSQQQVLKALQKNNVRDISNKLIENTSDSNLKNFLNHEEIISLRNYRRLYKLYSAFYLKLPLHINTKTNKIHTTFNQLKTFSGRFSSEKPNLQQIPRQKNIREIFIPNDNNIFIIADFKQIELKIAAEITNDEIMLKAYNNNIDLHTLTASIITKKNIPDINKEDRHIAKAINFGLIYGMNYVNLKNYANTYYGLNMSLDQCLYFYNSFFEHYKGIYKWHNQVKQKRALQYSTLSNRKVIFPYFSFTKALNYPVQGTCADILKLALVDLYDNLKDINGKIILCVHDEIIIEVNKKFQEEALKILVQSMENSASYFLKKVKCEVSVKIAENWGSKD

`CCOc1ccc(/C=C2\N=C(c3cc([N+](=O)[O-])cc([N+](=O)[O-])c3)OC2=O)cc1` [Molecule 97, CCOc1ccc(cc1)/C=C/1\N=C(OC1=O)c1cc(cc(c1)N(=O)=O)N(=O)=O] was tested, and the “DNA Pol” value ('DNA Pol' of the 186 hits list (primary screen result)) was 62, the “% inhibition Apo pol 10'” value (DRC-1, concentration 2.5) was 32.0109% and the “% inhibition Apo pol 10'” value (DRC-1, concentration 5) was 55.2757%. The “% inhibition Apo pol 10'” value (DRC-1, concentration 10) was 83.2599%, the “% inhibition Apo pol 10'” value (DRC-1, concentration 20) was 91.8438% and the “% inhibition Apo pol 10'” value (DRC-1, concentration 40) was 94.8761%. For the same compound, the “% inhibition Apo pol 10'” value (DRC-1, concentration 80) was 92.0577%, the “% inhibition Apol 90'” value (DRC-1, 90', concentration 2.5) was 15.0386% and the “% inhibition Apol 90'” value (DRC-1, 90', concentration 5) was 31.639%. For the same compound, the “% inhibition Apol 90'” value (DRC-1, 90', concentration 10) was 61.0945%, the “% inhibition Apol 90'” value (DRC-1, 90', concentration 20) was 80.2984% and the “% inhibition Apol 90'” value (DRC-1, 90', concentration 40) was 94.8535%. The “% inhibition Apol 90'” value (DRC-1, 90', concentration 80) was 94.5175%, the “% inhibition apPOL 180'” value (DRC-1, 180', concentration 2.5) was 6.537% and the “% inhibition apPOL 180'” value (DRC-1, 180', concentration 5) was 16.2109%. For the same compound, the “% inhibition apPOL 180'” value (DRC-1, 180', concentration 10) was 41.6227%, the “% inhibition apPOL 180'” value (DRC-1, 180', concentration 20) was 66.1189% and the “% inhibition apPOL 180'” value (DRC-1, 180', concentration 40) was 93.496%. For the same compound, the “% inhibition apPOL 180'” value (DRC-1, 180', concentration 80) was 95.7221%, the “% inhibition Apol 40'” value [1] was 68% and the “% inhibition Apol 40'” value (DRC-2, 40', concentration 40 (unit not given)) was 76%. The “% inhibition Apol 40'” value (DRC-2, 40', concentration 80 (unit not given)) was 76%, the “% inhibition ApPOL 90'” value [2] was 68% and the “% inhibition apPOL 180'” value [3] was 60%. The “% inhibition Apo pol 5'” value (DRC-2, concentration 2.5) was 20%, the “% inhibition Apo pol 5'” value (DRC-2, concentration 5) was 43% and the “% inhibition Apo pol 5'” value (DRC-2, concentration 10) was 52%. For the same compound, the “% inhibition Apo pol 5'” value (DRC-2, concentration 20) was 59%, the “% inhibition Apo pol 5'” value (DRC-2, concentration 40) was 61% and the “% inhibition Apo pol 5'” value (DRC-2, concentration 80) was 60%. For the same compound, the “% inhibition Apo pol 5'” value (DRC-2, concentration 80 (unit not given)) was 60%, the “% inhibition Apol 40'” value (DRC-2, 40', concentration 2.5) was 14% and the “% inhibition Apol 40'” value (DRC-2, 40', concentration 5) was 38%. For the same compound, the “% inhibition Apol 40'” value (DRC-2, 40', concentration 10) was 47%, the “% inhibition Apol 40'” value (DRC-2, 40', concentration 20) was 68% and the “% inhibition Apol 40'” value (DRC-2, 40', concentration 40) was 76%. For the same compound, the “% inhibition Apol 40'” value (DRC-2, 40', concentration 80) was 76%, the “% inhibition ApPOL 90'” value (DRC-2, 90', concentration 2.5) was 9% and the “% inhibition ApPOL 90'” value (DRC-2, 90', concentration 5) was 33%. The “% inhibition ApPOL 90'” value (DRC-2, 90', concentration 10) was 42%, the “% inhibition ApPOL 90'” value (DRC-2, 90', concentration 20) was 68% and the “% inhibition ApPOL 90'” value (DRC-2, 90', concentration 40) was 79%. For the same compound, the “% inhibition ApPOL 90'” value (DRC-2, 90', concentration 80) was 80%, the “% inhibition apPOL 180'” value (DRC-2, 180', concentration 2.5) was 2.15% and the “% inhibition apPOL 180'” value (DRC-2, 180', concentration 5) was 19%. For the same compound, the “% inhibition apPOL 180'” value (DRC-2, 180', concentration 10) was 28%, the “% inhibition apPOL 180'” value (DRC-2, 180', concentration 20) was 60% and the “% inhibition apPOL 180'” value (DRC-2, 180', concentration 40) was 81%. For the same compound, the “% inhibition apPOL 180'” value (DRC-2, 180', concentration 80) was 84% and the “DNA Pol” value (primary screen value of the library well) was 62.

`OC(C#Cc1ccccc1)c1ccco1` (stereo not drawn) [Molecule 95, OC(c1ccco1)C#Cc1ccccc1] was tested, and the “% inhibition Apo pol 10'” value (DRC-1, concentration 2.5) was 31.3113%, the “% inhibition Apo pol 10'” value (DRC-1, concentration 5) was 57.2957% and the “% inhibition Apo pol 10'” value (DRC-1, concentration 10) was 77.3144%. For the same compound, the “% inhibition Apo pol 10'” value (DRC-1, concentration 20) was 80.9257%, the “% inhibition Apo pol 10'” value (DRC-1, concentration 40) was 79.5386% and the “% inhibition Apo pol 10'” value (DRC-1, concentration 80) was 69.6909%. The “% inhibition Apol 90'” value (DRC-1, 90', concentration 2.5) was 17.4442%, the “% inhibition Apol 90'” value (DRC-1, 90', concentration 5) was 42.0165% and the “% inhibition Apol 90'” value (DRC-1, 90', concentration 10) was 68.6484%. The “% inhibition Apol 90'” value (DRC-1, 90', concentration 20) was 80.4558%, the “% inhibition Apol 90'” value (DRC-1, 90', concentration 40) was 83.9315% and the “% inhibition Apol 90'” value (DRC-1, 90', concentration 80) was 80.7801%. For the same compound, the “% inhibition apPOL 180'” value (DRC-1, 180', concentration 2.5) was 5.809%, the “% inhibition apPOL 180'” value (DRC-1, 180', concentration 5) was 25.3082% and the “% inhibition apPOL 180'” value (DRC-1, 180', concentration 10) was 55.1933%. For the same compound, the “% inhibition apPOL 180'” value (DRC-1, 180', concentration 20) was 73.4768%, the “% inhibition apPOL 180'” value (DRC-1, 180', concentration 40) was 83.0192% and the “% inhibition apPOL 180'” value (DRC-1, 180', concentration 80) was 83.0007%. The “% inhibition Apol 40'” value (DRC-2, 40', concentration 10 (unit not given)) was 60%, the “% inhibition Apol 40'” value [1] was 62% and the “% inhibition ApPOL 90'” value (DRC-2, 90', concentration 10 (unit not given)) was 62%. For the same compound, the “% inhibition ApPOL 90'” value [2] was 67%, the “% inhibition ApPOL 90'” value (DRC-2, 90', concentration 40 (unit not given)) was 66% and the “% inhibition ApPOL 90'” value (DRC-2, 90', concentration 80 (unit not given)) was 60%. The “% inhibition apPOL 180'” value [3] was 66%, the “% inhibition apPOL 180'” value (DRC-2, 180', concentration 80 (unit not given)) was 67% and the “% inhibition Apo pol 5'” value (DRC-2, concentration 2.5) was 14%. For the same compound, the “% inhibition Apo pol 5'” value (DRC-2, concentration 5) was 32%, the “% inhibition Apo pol 5'” value (DRC-2, concentration 10) was 39% and the “% inhibition Apo pol 5'” value (DRC-2, concentration 20) was 34%. For the same compound, the “% inhibition Apo pol 5'” value (DRC-2, concentration 40) was 22%, the “% inhibition Apo pol 5'” value (DRC-2, concentration 80) was -5% and the “% inhibition Apol 40'” value (DRC-2, 40', concentration 2.5) was 15%. For the same compound, the “% inhibition Apol 40'” value (DRC-2, 40', concentration 5) was 44%, the “% inhibition Apol 40'” value (DRC-2, 40', concentration 10) was 60% and the “% inhibition Apol 40'” value (DRC-2, 40', concentration 20) was 62%. The “% inhibition Apol 40'” value (DRC-2, 40', concentration 40) was 59%, the “% inhibition Apol 40'” value (DRC-2, 40', concentration 80) was 48% and the “% inhibition ApPOL 90'” value (DRC-2, 90', concentration 2.5) was 12%. The “% inhibition ApPOL 90'” value (DRC-2, 90', concentration 5) was 41%, the “% inhibition ApPOL 90'” value (DRC-2, 90', concentration 10) was 62% and the “% inhibition ApPOL 90'” value (DRC-2, 90', concentration 20) was 67%. The “% inhibition ApPOL 90'” value (DRC-2, 90', concentration 40) was 66%, the “% inhibition ApPOL 90'” value (DRC-2, 90', concentration 80) was 60% and the “% inhibition apPOL 180'” value (DRC-2, 180', concentration 2.5) was 4.25%. The “% inhibition apPOL 180'” value (DRC-2, 180', concentration 5) was 30%, the “% inhibition apPOL 180'” value (DRC-2, 180', concentration 10) was 58% and the “% inhibition apPOL 180'” value (DRC-2, 180', concentration 20) was 66%. The “% inhibition apPOL 180'” value (DRC-2, 180', concentration 40) was 71%, the “% inhibition apPOL 180'” value (DRC-2, 180', concentration 80) was 67% and the “DNA Pol” value (primary screen value of the 186 hits) was 70. For the same compound, the “DNA Pol” value (primary screen value, head "DNA Pol") was 70.
